Literature values, collected in patent US20080114028A1, “Process for preparing polymorphic forms of solifenacin succinate” (priority 2006, published 2008).

Details: at room temperature in water, glacial acetic acid, dimethylsulfoxide, and methanol

In the case of `O=C(O[C@H]1CN2CCC1CC2)N1CCc2ccccc2[C@@H]1c1ccccc1` [Solifenacin succinate, solifenacin succinate], the solubility is listed as “freely soluble”.
